In brackets after ≈: the same amount, converted by molar mass.
Key:
Type in all cases: functional
[1] = Antibacterial activity against Vibrio cholerae O1 569B harboring gyrA and parC genes by 2-fold agar dilution method
[2] = Antibacterial activity against Vibrio cholerae O1 CIP0.25-1 harboring Ser to Ile mutation at 83 position in gyrA and parC genes by 2-fold agar dilution method
[3] = Antibacterial activity against Vibrio cholerae O1 mTn-321 harboring Ser to Ile mutation at 83 position in gyrA and parC genes by 2-fold agar dilution method
Escherichia coli [4] = assay: Antibacterial activity against Escherichia coli JM109 harboring plasmid ptac85-vca0421
Escherichia coli [5] = assay: Antibacterial activity against Escherichia coli JM109 harboring plasmid ptac85

SMILES	MIC [1]	MIC [2]	MIC [3]	MIC (Escherichia coli [4])	MIC (Escherichia coli [5])
O=C(O)c1cn(C2CC2)c2cc(N3CCNCC3)c(F)cc2c1=O [CIPROFLOXACIN]	4 ng/mL (≈ 0.0121 µM)				
CCn1cc(C(=O)O)c(=O)c2cc(F)c(N3CCNCC3)nc21 [ENOXACIN]	31.3 ng/mL (≈ 0.0977 µM)	2 µg/mL (≈ 6.24 µM)	0.25 µg/mL (≈ 0.78 µM)	2 µg/mL (≈ 6.24 µM)	4 µg/mL (≈ 12.5 µM)
CCn1cc(C(=O)O)c(=O)c2cc(F)c(N3CCNCC3)cc21 [NORFLOXACIN]	7.8 ng/mL (≈ 0.0244 µM)	2 µg/mL (≈ 6.26 µM)	0.125 µg/mL (≈ 0.391 µM)	1 µg/mL (≈ 3.13 µM)	1 µg/mL (≈ 3.13 µM)
C[C@@H]1CN(c2c(F)c(N)c3c(=O)c(C(=O)O)cn(C4CC4)c3c2F)C[C@H](C)N1 [SPARFLOXACIN]	4 ng/mL (≈ 0.0102 µM)	0.125 µg/mL (≈ 0.319 µM)	0.0625 µg/mL (≈ 0.159 µM)	0.125 µg/mL (≈ 0.319 µM)	0.25 µg/mL (≈ 0.637 µM)
CN(C)[C@@H]1C(O)=C(C(N)=O)C(=O)[C@@]2(O)C(O)=C3C(=O)c4c(O)cccc4[C@@](C)(O)[C@H]3C[C@@H]12 [TETRACYCLINE]	500 ng/mL (≈ 1.13 µM)	4 µg/mL (≈ 9 µM)		8 µg/mL (≈ 18 µM)	16 µg/mL (≈ 36 µM)
